Laboratory results reported in patent US7329485B2, “Methods for detecting compounds that interfere with protein aggregation utilizing an in vitro fluorescence-based assay” (priority 2005, dated 2008).
“Also recorded” adds a separate entry of the source.

Columns and labels:
HBV capsid (C150BO) [1] = target: T1, HBV capsid (C150BO) (Hepatitis B virus genotype D subtype adw, UniProt P03147, C107A/C48A/C61A); assay: BODIPY-FL fluorescence quenching assay of C150BO capsid assembly, compared to size-exclusion chromatography; assay type: biochemical, HBV strain adyw; details: for effect on C150BO assembly (fluorescence, size-exclusion chromatography): 3 μM C150BO, 21° C.; for effect on assembly and quenching in mock assembly reactions: mock-assembled, low salt / no NaCl, time not stated; for effect on fluorescence of mock-assembled C150BO dimer (intrinsic quenching control): early times (up to 2 h)
T1 construct: For fluorescent labeling, the mutant C150 (Zlotnick et al., 1997); made in house; host or cells: E. coli
Protocol: Mutagenesis: For simplicity of chemical labeling, the cysteine residues (C48, C61 and C107) in the assembly domain of HBV strain adyw core protein (amino acids 1-149 (Zlotnick et al., 1996), core protein 149) were mutated to alanine, inserting a unique cysteine residue at the C terminus (C150). Mutagenesis was performed using QuikChange Multi (Stratagene). Mutagenic primers are described in Table III (IDT DNA technologies). Mutations were confirmed by dye terminator dideoxy sequencing (DNA Sequencing Core, Oklahoma Medical Research Foundation). The resulting mutant protein is referred to herein as C150.
Protein expression, purification and dye labeling: Wild-type and mutant truncated HBV capsid protein dimers were expressed and purified from E. coli as described in Zlotnick et al., 1996 and Zlotnick et al., 2002. Protein was quantified by absorbance at 280 nm (ε=60,900 M^−1 cm^−1). DTT levels were maintained at 5 mM throughout purification and storage. Immediately before derivatization, C150 protein was removed from storage buffer by chromatography over a G25 PD10 desalting column (Amersham Biosciences) equilibrated with ice-cold 50 mM HEPES pH 7.5 without DTT. Peak fractions were reacted with BODIPY-FL maleimide (Invitrogen/Molecular Probes) on ice at a final concentration of 4 mM from a 20 mM BODIPY-FL stock in DMSO. Most complete labeling was achieved by overnight reaction, although significant labeling could be achieved by reaction for as little as 10 min. Unreacted dye was removed by separation over a G25 PD10 desalting column equilibrated in ice-cold 50 mM HEPES, pH 7.5. The degree of dye labeling was determined using absorbance at 504 nm (ε504=73,000 M^−1 cm^−1, ε280=1,300 M^−1 cm^−1). The extinction coefficient was calculated by determining the degree of labeling of BODIPY-FL-labeled C150 preps by MALDI-TOF mass spectrometry. Yield of BODIPY-FL-labeled C150 was typically on the order of 1.9 moles of dye per mole of dimer. Labeling of C150 with fluorescein maleimide was compared to BODIPY-FL; BODIPY-FL conjugates gave a much stronger assembly-dependent change in fluorescence than did fluorescein.
Fluorescence and light scattering: Assembly was monitored by fluorescence using a SPEX Fluoromax-2 fluorometer (Horiba Jobin Yvon), using a 0.3-cm path-length cuvette (Hellma) or in black 96-well COSTAR fluorescence microtiter plates (Corning) using a MicroMax adaptor. Assembly reactions were performed at 21° C. Assembly was initiated manually by mixing core protein in 50 mM HEPES, pH 7.5, with buffered NaCl (Sigma) as appropriate. Fluorescence was excited at 504 nm and emission was measured at 509 nm (1-nm band pass for each). For static measurements, all measurements were recorded in triplicate. Qualitatively similar results were obtained using excitation at 495 nm and emission at 512 nm (commonly used for fluorescein fluorescence). Measuring fluorescence of the same reactions in either a cuvette or a 96-well fluorescence microtiter plate gave identical quenching values.
Size-exclusion chromatography: Assembly reactions were examined by SEC on a Superose 6 10/30 column (Amersham Biosciences) mounted on a Shimadzu high-performance liquid chromatography system equipped with an auto injection module (Shimadzu). The column was equilibrated with 50 mM HEPES, pH 7.5, 50 mM NaCl. Recovered protein was assigned either to the void (6.5-7.0 ml), capsid (7.0-8.3 ml), dimer (15-16.5 ml) or intermediate elution (8.3-15 ml).

HBV core protein = HBV core protein (Hepatitis B virus genotype D subtype adw, UniProt P03147); set-up: concentration leading to formation of aberrant particles: unit not given here; details: Stray et al., 2005, cited from earlier work
HBV capsid (C150BO) [2] = target: T1, HBV capsid (C150BO); assay: Example 2 in vitro assembly reactions with labeled capsid polypeptide C150BO, plate reader; assay type: biochemical; details: % assembly at 1 hour (FIG. 7); conditions induced 25% (±5%) assembly in the absence of drugs
Protocol: The assays were carried out as described in Example 1, except as described herein after. Samples were read in 3 minute intervals for one hour and again at 24 hours using a Tecan filter-based plate reader with a standard fluorescein filter set.
FIG. 7 illustrates a typical experiment comparing different compounds, including some heteroaryldihydropyrimidine (HAP) derivatives. In this experiment, assembly conditions induced 25% (±5%) assembly in the absence of drugs.

T1 sequence (P03147 1-150, looked up, stated change not applied): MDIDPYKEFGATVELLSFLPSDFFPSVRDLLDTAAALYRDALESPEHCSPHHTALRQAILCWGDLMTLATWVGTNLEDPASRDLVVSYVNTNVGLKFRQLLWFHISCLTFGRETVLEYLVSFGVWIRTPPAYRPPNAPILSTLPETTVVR
Sequence of HBV core protein (P03147 1-149): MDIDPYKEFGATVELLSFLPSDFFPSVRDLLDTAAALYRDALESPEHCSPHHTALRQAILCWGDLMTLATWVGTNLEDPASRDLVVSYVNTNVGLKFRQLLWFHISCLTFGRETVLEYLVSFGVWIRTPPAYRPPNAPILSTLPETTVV

SMILES | effect on C150BO assembly (fluorescence, size-exclusion chromatography) (HBV capsid (C150BO) [1]; 150 mM NaCl, 24 h (FIG. 6a)) | effect on assembly and quenching in mock assembly reactions (HBV capsid (C150BO) [1]) | quenching and assembly in mock-assembled controls (HBV capsid (C150BO) [1]; without NaCl, after 24 h) | effect on fluorescence of mock-assembled C150BO dimer (intrinsic quenching control) (HBV capsid (C150BO) [1]; without NaCl) | concentration leading to formation of aberrant particles (HBV core protein; >1 HAP-1 molecule per dimer) | effect on HBV core protein assembly in vitro (HBV core protein; broad range of concentrations) | effect on C150BO assembly (fluorescence, size-exclusion chromatography) (HBV capsid (C150BO) [1]; 0.5 M NaCl, 24 h (FIG. 6b)) | effect on % assembly of HBV capsid by fluorescence (HBV capsid (C150BO) [2])
COC(=O)C1=C(C)NC(c2ccccn2)=NC1c1ccc(F)cc1Cl (stereo not shown) [HAP-1] | enhanced assembly, leading to enhanced quenching; also recorded: substantially increased both the rate and the extent of C150BO assembly | able to induce slow C150BO assembly | showed both BODIPY-FL quenching and assembly by SEC | No reduction in fluorescence; also recorded: no effect on fluorescence | ≥ 10 | enhanced the rate and extent of HBV core protein assembly |  | 
NC(N)=O [urea] |  | affected neither assembly nor quenching |  | No reduction in fluorescence |  |  | inhibited assembly; also recorded: A decrease in assembly by SEC and an increase in fluorescence | only showed marginal assembly inhibition
